Test results from patent US8399520B2, “Selective estrogen receptor modulator” (Eisai R&D Management Co., Ltd., priority 2002, dated 2013).

How the values were obtained:
ovariectomized rats [1] = assay: Ovariectomized rats: uterus wet weight; type: in vivo, rat; settings: rat, in vivo
Source text: (§1) Ten weeks old Female Fischer rats (F344/N, Japan SLC, Shizuoka, Japan) were used. Rats were grouped to eliminate the effect of body weight between each group and housed with free access to food and water. Animals were anesthetized with Nembutal (Abbott Laboratories, Chicago, Ill.) and the ovaries were removed. In sham-operated group, ovaries were only touched with tweezers. Administration of compounds was started one day after the operation.
(§2) Estradiol (Sigma-Aldrich, St. Louis, Mo.) was dissolved in DMSO to 150 mg/mL then diluted with sesame oil to 0.15 mg/mL. The compounds in Examples 736 and 814, and Raloxifene were suspended in sesame oil to 5, 5 and 1.5 mg/mL, respectively. Samples were divided into aliquots for daily administration and preserved at −18° C. until use.
(§3) The samples were orally administered at 2 mL/kg. Administration was carried out once a day from Monday to Friday for 8 weeks.
After animals were sacrificed by decapitation, uterus was removed and adipose tissue and vagina was separated from uterus prior to uterus weight measurement.

[2] = target: T1, estrogen receptor derived from bovine uterus (Bos taurus, UniProt P49884); assay: In vitro estrogen receptor binding assay; settings: read-out: Estrogen receptor binding affinity: Ki
T1 construct: estrogen receptor derived from bovine uterus was diluted with the assay buffer solution so that 10 to 20 μg total protein was present; from tissue; host or cells: bovine uterus
T1 sequence (P49884 1-596): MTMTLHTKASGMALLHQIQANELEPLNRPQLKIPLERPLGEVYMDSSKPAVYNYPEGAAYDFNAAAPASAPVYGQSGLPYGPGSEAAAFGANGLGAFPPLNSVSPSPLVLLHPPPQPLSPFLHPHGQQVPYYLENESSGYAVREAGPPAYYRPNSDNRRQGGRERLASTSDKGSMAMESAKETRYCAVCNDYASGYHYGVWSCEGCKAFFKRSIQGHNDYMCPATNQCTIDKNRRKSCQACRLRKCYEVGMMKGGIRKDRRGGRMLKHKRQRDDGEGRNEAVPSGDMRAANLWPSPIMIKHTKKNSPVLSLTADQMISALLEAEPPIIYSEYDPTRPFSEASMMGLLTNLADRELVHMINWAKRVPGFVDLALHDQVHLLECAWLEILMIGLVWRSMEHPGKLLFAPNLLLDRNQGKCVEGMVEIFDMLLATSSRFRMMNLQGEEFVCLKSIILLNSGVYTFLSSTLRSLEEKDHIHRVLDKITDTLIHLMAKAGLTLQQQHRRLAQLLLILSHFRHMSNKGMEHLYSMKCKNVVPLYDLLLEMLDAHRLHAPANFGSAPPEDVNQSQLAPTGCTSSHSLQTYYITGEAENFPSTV
Experimental: The binding affinity of the compound according to the present invention to estrogen receptor was measured using an in vitro estrogen receptor binding assay. The binding affinity measures the ability of the compound according to the present invention to remove [^3H]-estradiol from estrogen receptor derived from bovine uterus. The following materials were used in this assay: (1) the assay buffer solution was 20 mM Tris/HCl (pH 7.5) containing 1 mM dithiothreitol (DTT), 1 mM EDTA and 10% glycerol; (2) radioactive ligand was [^3H]-estradiol purchased from Amersham Life Science; (3) the cold ligand was diethylstilbestrol purchased from sigma (Sigma); and (4) the estrogen receptor was derived from bovine uterus. The compound to be tested was prepared as a 10% DMSO solution. [^3H]-estradiol was dissolved in the assay buffer solution so as to obtain a final concentration of 1 nM. […] Each plate contains total binding, non-specific binding and the binding which were not inhibited by various concentrations of the compound. The plate was incubated for 1 hour at room temperature. […] These mixtures were centrifuged, and the supernatant thereof was evaluated for its radioactivity using a liquid scintillation counter. Specific binding was calculated by subtracting non-specific binding dpm (counts remaining in the supernatant obtained by centrifugal separation of a reaction mixture containing estrogen receptor derived from bovine uterus, radioactive ligand and excess cold ligand) from the total binding dpm (counts remaining in the supernatant obtained by centrifugal separation of a reaction mixture containing estrogen receptor derived from bovine uterus and radioactive ligand only). The effectiveness of the compound was evaluated by Ki. […] C is the concentration of [^3H]-estradiol in the reaction mixture, and Kd is the [^3H]-estradiol dissociation constant. The Kd was determined by Scatchard analysis. That is to say, various concentrations of [^3H]-estradiol were used to measure the concentration of specifically bound [^3H]-estradiol, which served as the horizontal axis, the value which was obtained by dividing the concentration of specifically bound [^3H]-estradiol by the concentration [^3H]-estradiol not bound to the receptor served as the vertical axis to produce a plot, and the negative value of the inverse of the slope of the resulting straight line was used as Kd.

ovariectomized rats [3] = assay: Ovariectomized rats: bone density of femur and fifth lumbar vertebrae; type: in vivo, rat; settings: for Bone Mineral Density, Distal femur / Bone Mineral Density, Lumber 5 / Bone Mineral Density, Whole femur: OVX rats, 10 mg/kg orally, 8 weeks; for Effect on bone mineral density of femur and fifth lumbar vertebrae (in words): ovariectomized rats, eight weeks after ovariectomy, compared with sham-operated rats
Source text: as §1, §2, §3
After animals were sacrificed by decapitation, left femur and the fifth lumbar vertebrae were removed. The bone density was measured by using QDR-1000/W (Ho logic Inc., Bedford, Mass.).

[4] = tested on: MCF-7 breast cancer cells; assay: MCF-7 growth analysis (estrogen agonist and antagonist activity, MTT assay); type: cell-based; settings: Homo sapiens; for activity at 0.1 µM: MCF7, MCF-7, 72 hours, growth rate of diluent control = 100, of 17β-estradiol (1 nM) = 200, read-out: Agonist activity: growth rate (100 nM test compound); for IC50: MCF7, MCF-7 growth with 17β-estradiol (10 pM) present simultaneously, 72 hours
Experimental: Test Example 2 determines the estrogen agonist and antagonist activities of the compound according to the present invention in reproduction system cells. […] The present test was carried out according to the following procedures. MCF-7 breast cancer cells were cultured in the preservation medium until the compound evaluation. The preservation medium is the MEM (minimum essential medium, phenol red-free, Gibco, ##51200-038) supplemented with 10% (volume/volume) fetal bovine serum (FBS), 2 mM L-glutamine, 1 mM sodium pyruvate, non-essential amino acids (0.1 mM, Gibco, #15240-062), and antibiotic-antimycotic solution ( 1/50 of culture medium volume, Gibco). Five days prior to analysis, the preservation medium was exchanged with analytical medium to which 10% charcoal-stripped fetal bovine serum (charcoal-FBS) was added instead of 10% FBS, so as to deprive the MCF-7 cells of endogenous steroids. Twenty-four hours after exchange to the analytical medium, the MCF-7 cells were removed from the preservation flask using cell isolation medium (trypsin-EDTA solution, Gibco). The cells were washed with analytical medium once, and cell suspension at 50,000 cell/ml was prepared using the analytical medium. The prepared cell suspension was added to a 96 well flat-bottomed microculture at […] (5,000 cells) per well, the cells were cultured in a 5% CO2 incubator for 24 hours at 37° C., to equilibrate the cells after cell transfer. […] The cells were further cultured in the 5% CO2 incubator for 72 hours at 37° C. After culturing, the cell growth was examined by the MTT assay. MTT assay was carried out as the following protocols. MTT solution at 8 mg/ml (MTT dissolved in phosphate saline water buffer) was added to the microculture at 10 μl/well, and the cells were cultured in the 5% CO2 incubator for 30 minutes at 37° C. Thereafter, resulting from the reduction of MTT by the cells, formazan crystals were dissolved by adding a dissolution buffer (400 g/l of an aqueous solution of SDS (50%) and dimethylformamide (50%)) to the microculture at 100 μl/well, and incubated the microculture for more than 4 hours in the dark. For each well of the microculture, the optical density at 590 nm due to the dissolved formazan crystals was measured.

ovariectomized rats [5] = assay: Bone resorption in ovariectomized rats: deoxypyridinoline in urine; type: in vivo, rat; settings: for Deoxypyridinoline, 5 weeks / Deoxypyridinoline, 8 weeks: OVX rats, 10 mg/kg orally once a day Monday to Friday, urine; for Effect on excretion of deoxypyridinoline in urine (in words): ovariectomized rats, after 5 and 8 weeks administrations
Source text: as §1, §2, §3
Urine was gathered overnight (17 hours) using the metabolic cage under fasting. The amount of urinary deoxypyridinoline was measured with ELISA kit, Osteorincs-DPD (Sumitomo Seiyaku Biomedical Co., Ltd., Osaka, Japan) and evaluated as total amount produced in 17 hours or as the amount per 1 mg of creatinine.

Row | Ki [2] [nM] | IC50 [4] [nM] | Structure (SMILES) | Effect on uterus wet weight (in words) (ovariectomized rats [1]) | Bone Mineral Density, Distal femur (ovariectomized rats [3]) [g/cm^2] | Bone Mineral Density, Lumber 5 (ovariectomized rats [3]) [g/cm^2] | Bone Mineral Density, Whole femur (ovariectomized rats [3]) [g/cm^2] | Effect on bone mineral density of femur and fifth lumbar vertebrae (in words) (ovariectomized rats [3]) | activity at 0.1 µM [4] [%] | Deoxypyridinoline, 5 weeks (ovariectomized rats [5]) [nM/mg/dl] | Deoxypyridinoline, 8 weeks (ovariectomized rats [5]) [nM/mg/dl] | Effect on excretion of deoxypyridinoline in urine (in words) (ovariectomized rats [5])
1 | 8.4 | 3.23 | COc1ccc([C@@H]2CCc3cc(O)ccc3C2)c(N(CCO)Cc2ccc(OCC(C)(C)N(C)C)cc2)c1 [Example 814, (R)-6-{2-[[4-(2-Dimethylamino-2-methylpropoxy)benzyl](2-hydroxyethyl)amino]-4-methoxyphenyl}-5,6,7,8-tetrahydronaphthalen-2-ol] | slightly increased uterus wet weight to the same level | 0.248 ± 0.002 | 0.159 ± 0.001 | 0.237 ± 0.002 | preserved bone mineral density at the level in sham-operated rats | 95 | 11.22 ± 1.12 | 15.48 ± 0.98 | significantly attenuated the excretion of deoxypyridinoline
2 | 6 | 0.74 | CCNCCc1ccc(CN(CC)c2cc(OC)ccc2[C@@H]2CCc3cc(O)ccc3C2)cc1 [Example 736, (R)-6-{2-{Ethyl[4-(2-ethylaminoethyl)benzyl]amino}-4-methoxyphenyl}-5,6,7,8-tetrahydronaphthalen-2-ol] | did not influence the wet weight of the uterus at all | 0.256 ± 0.002 | 0.156 ± 0.003 | 0.241 ± 0.002 | preserved bone mineral density at the level in sham-operated rats | 73 | 10.48 ± 0.52 | 15.33 ± 0.78 | significantly attenuated the excretion of deoxypyridinoline
